Reference: patent US10213415B2, “Compounds as opioid receptor modulators” (JANSSEN PHARMACEUTICA NV, priority 2004, dated 2019)
pEC50, pKi: −log10 of the molar value.

Assays:
[1] = biological target: T1, delta opioid receptor (NG108-15 cell membranes) (Mus musculus, UniProt P32300); test: Delta Opioid Receptor Functional Assay: [35S]GTPγS Binding in NG108-15 Cell Membranes, Version 2; type: biochemical; conditions: NG108-15 cell membranes, version 2; for pEC50: [35S]GTPγS, read-out: DOR GTP-binding Assay_v2_ EC50; for DOR GTP-binding Assay v2 (% I): % inhibition of agonist-stimulated GTPγS binding
T1 construct: NG108-15 cell membranes were purchased from Applied Cell Sciences (Rockville, Md.); host or cells: NG108-15 cells (membranes purchased)
Experimental: NG108-15 cell membranes were purchased from Applied Cell Sciences (Rockville, Md.). 8 mg/ml of membrane protein suspended in 10 mM TRIS-HC pH 7.2, 2 mM EDTA, 10% sucrose.
Membranes were maintained at 4-8° C. A portion (1 ml) of membranes was added into 10 ml cold binding assay buffer. The assay buffer contained 50 mM Tris, pH 7.6, 5 mM MgCl2, 100 mM NaCl, 1 mM DTT and 1 mM EGTA. The membrane suspension was homogenized with a Polytron for 2 times and centrifuged at 3000 rpm for 10 min. The supernent was then centrifuged at 18,000 rpm for 20 min. The pellet was saved in a tube and 10 ml assay buffer was added into the tube. The pellet and buffer were mixed with a Polytron.
The pellet membranes (75 μg/ml) were preincubated with SPA (10 mg/ml) at 25° C. for 45 min in the assay buffer. The SPA (5 mg/ml) coupled with membranes (37.5 μg/ml) was then incubated with 0.1 nM [^35S] GTPγS in the same Tris buffer containing 100 μM GDP in total volume of 200 μl. Increasing concentrations of receptor agonists were used to stimulate [^35S] GTPγS binding. The basal binding was tested in the absent agonists and no specific binding was tested in the present 10 μM unlabeled GTPγS. The data were analyzed on a Top counter.
[formula] % Inhibition=(% stimulation by 1 μM SNC80−% stimulation by 1 μM SNC80 in presence of test compound)×100/(% Stimulation by 1 μM SNC80−100) % of Basal=(stimulate−non specific)*100/(basal−non specific). EC50 values were calculated using GraphPad Prism.

delta opioid receptor = biological target: T2, delta opioid receptor (Rattus norvegicus, UniProt P33533); test: Rat Brain Delta Opioid Receptor Binding Assay ([3H]DPDPE); conditions: rat forebrain membranes, margin of error 10-20%, read-out: r Ki δ
T2 construct: from tissue; host or cells: forebrain of male Wistar rats
Method in brief: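 Rat (male Wistar) forebrain membranes in 50 mM Tris-HCl pH 7.4 with 5 mM MgCl2, incubated with ~4 nM [3H]DPDPE for 2.5 h at 25 °C. Bound ligand collected by filtration and scintillation counting. Single-concentration data given as % inhibition of specific binding; concentration series fitted to Ki.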

human mu opioid receptor = biological target: T3, human mu opioid receptor (Homo sapiens, UniProt P35372); test: Human Mu Opioid Receptor Binding Assay (CHO membranes, 3H-Damgo); conditions: read-out: hKi μ
T3 construct: purchased Perkin Elmer RBHOMM400UA; host or cells: Chinese Hamster Ovary cells (recombinant expression)
Method in brief: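 Radioligand displacement of ³H-Damgo (diluted to 3.6 nM pre-mix) from recombinant human mu receptor in CHO membranes, 2 h, room temperature, 50 mM Tris pH 7.5 with 5 mM MgCl2. Bound label read by filtration and scintillation counting; 1 μM unlabelled Damgo defines nonspecific binding.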

[2] = biological target: T4, mu opioid receptor (CHO-hMOR cell membranes) (Homo sapiens, UniProt P35372); test: Mu Opioid Receptor Functional Assay: [35S]GTPγS Binding in CHO-hMOR Cell Membranes, Versions 1 and 2; type: biochemical; conditions: for MOR GTP binding assay_v2 (% I): version 2, % inhibition of agonist-stimulated GTPγS binding; for pEC50: version 2, read-out: MOR GTP binding assay v2 EC50
T4 construct: purchased Receptor Biology, Inc. (Baltimore, Md.); host or cells: CHO cells (recombinant expression)
Method in brief: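 Agonist-stimulated [35S]GTPγS (0.5 nM) binding measured by SPA in human MOR CHO membranes, buffer pH 7.6 with 100 mM NaCl, 5 mM MgCl2. Antagonist mode: % inhibition of stimulation by 1 μM SNC80; agonist mode: EC50 fitted. Basal binding without agonist, non-specific with 10 μM cold GTPγS.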

mu opioid receptor = biological target: T5, mu opioid receptor (Rattus norvegicus, UniProt P33535); test: Rat Brain Mu Opioid Receptor Binding Assay (and Version 2a, [3H]DAMGO); conditions: rat forebrain membranes, margin of error 10-20%, read-out: r Ki μ
T5 construct: from tissue; host or cells: forebrain of male Wistar rats
Method in brief: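 Displacement of the mu-selective radioligand [3H]DAMGO (0.8 nM) measured by filtration and scintillation counting after 2.5 h at 25° C. Membranes came from male Wistar rat forebrain in Tris-HCl (50 mM, pH 7.4) plus 5 mM MgCl2; Ki derived from concentration–response, % inhibition for single doses.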

[3] = biological target: T6, human delta subtype 2 opioid receptor (Homo sapiens, UniProt P41143); test: Human Delta Opioid Receptor Binding Assay (CHO membranes, 3H-Naltrindole); conditions: read-out: hKi δ
T6 construct: purchased Perkin Elmer RBHODM400UA; host or cells: Chinese Hamster Ovary cells (recombinant expression)
Method in brief: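 Compound displacement of tritiated naltrindole (6 nM working dilution) measured by scintillation counting after GF/C filtration. Receptor source: recombinant CHO membranes; buffer 50 mM Tris, 5 mM MgCl2, pH 7.5; 30 min room-temperature incubation. 1 μM cold naltrindole sets nonspecific binding.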

T5 sequence (P33535 whole entry): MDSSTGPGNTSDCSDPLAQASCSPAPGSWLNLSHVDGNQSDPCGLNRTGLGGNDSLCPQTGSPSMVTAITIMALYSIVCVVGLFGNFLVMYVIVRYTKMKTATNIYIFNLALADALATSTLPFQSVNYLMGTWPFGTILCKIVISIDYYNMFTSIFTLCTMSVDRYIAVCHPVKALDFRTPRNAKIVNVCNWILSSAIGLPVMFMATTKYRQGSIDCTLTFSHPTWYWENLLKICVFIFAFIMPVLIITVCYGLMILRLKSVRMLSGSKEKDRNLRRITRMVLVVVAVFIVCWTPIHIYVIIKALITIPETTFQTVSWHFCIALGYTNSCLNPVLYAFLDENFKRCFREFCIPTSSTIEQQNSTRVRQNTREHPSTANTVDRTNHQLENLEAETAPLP
T3 sequence (P35372 whole entry): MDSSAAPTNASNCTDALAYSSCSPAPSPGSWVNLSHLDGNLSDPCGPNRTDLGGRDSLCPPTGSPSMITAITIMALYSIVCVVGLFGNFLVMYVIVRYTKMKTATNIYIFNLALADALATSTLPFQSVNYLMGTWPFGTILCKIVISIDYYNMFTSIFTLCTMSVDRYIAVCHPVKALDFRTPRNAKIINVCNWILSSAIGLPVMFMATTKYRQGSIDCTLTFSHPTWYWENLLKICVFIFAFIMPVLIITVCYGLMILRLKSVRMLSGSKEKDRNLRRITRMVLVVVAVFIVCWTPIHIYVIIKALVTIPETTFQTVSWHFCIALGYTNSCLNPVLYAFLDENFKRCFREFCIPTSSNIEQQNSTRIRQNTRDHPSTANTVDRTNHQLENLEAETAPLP
T4 sequence (P35372 whole entry): as above
T2 sequence (P33533 whole entry): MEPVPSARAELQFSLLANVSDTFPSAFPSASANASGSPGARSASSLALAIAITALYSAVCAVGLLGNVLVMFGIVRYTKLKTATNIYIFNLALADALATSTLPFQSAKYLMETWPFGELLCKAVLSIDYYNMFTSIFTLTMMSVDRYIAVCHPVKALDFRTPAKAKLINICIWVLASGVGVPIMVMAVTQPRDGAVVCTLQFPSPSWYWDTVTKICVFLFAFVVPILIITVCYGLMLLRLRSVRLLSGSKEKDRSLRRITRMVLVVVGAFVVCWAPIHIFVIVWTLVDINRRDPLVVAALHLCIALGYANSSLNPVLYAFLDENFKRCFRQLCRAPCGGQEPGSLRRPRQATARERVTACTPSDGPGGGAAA
T1 sequence (P32300 whole entry): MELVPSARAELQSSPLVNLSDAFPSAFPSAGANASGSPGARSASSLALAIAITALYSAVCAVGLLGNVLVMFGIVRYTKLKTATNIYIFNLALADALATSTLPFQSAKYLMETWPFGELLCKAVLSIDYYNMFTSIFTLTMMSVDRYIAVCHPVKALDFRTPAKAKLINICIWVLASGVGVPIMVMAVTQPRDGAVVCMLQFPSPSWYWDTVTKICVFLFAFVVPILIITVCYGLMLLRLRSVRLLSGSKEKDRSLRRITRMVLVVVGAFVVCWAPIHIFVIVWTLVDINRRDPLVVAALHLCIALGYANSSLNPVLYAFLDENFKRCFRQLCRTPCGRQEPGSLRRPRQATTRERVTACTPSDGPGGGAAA
T6 sequence (P41143 whole entry): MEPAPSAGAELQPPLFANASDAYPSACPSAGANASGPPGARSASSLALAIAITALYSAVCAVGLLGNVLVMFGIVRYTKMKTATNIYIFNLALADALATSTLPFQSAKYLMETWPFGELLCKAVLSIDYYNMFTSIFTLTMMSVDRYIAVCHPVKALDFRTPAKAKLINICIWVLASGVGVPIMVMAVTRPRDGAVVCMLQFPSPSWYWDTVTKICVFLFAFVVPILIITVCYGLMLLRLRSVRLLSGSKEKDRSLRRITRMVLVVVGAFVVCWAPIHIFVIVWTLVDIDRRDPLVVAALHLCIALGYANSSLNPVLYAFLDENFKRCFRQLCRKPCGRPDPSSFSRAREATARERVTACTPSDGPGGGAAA

| Compound | pEC50 [1] | DOR GTP-binding Assay v2 (% I) [1] | pKi (delta opioid receptor) | pKi (human mu opioid receptor) | MOR GTP binding assay_v2 (% I) [2] | pEC50 [2] | pKi (mu opioid receptor) | pKi [3] |
| --- | --- | --- | --- | --- | --- | --- | --- | --- |
| COc1cc(CN(C(=O)[C@@H](N)Cc2c(C)cc(C(N)=O)cc2C)[C@@H](C)c2nc(-c3ccccc3)c[nH]2)ccc1C(=O)O [Cpd 14] | 9.22 | 59.70% | 9.44 | 8.33 |  |  |  |  |
| COc1ccc(CN(C(=O)[C@@H](N)Cc2c(C)cc(C(N)=O)cc2C)[C@@H](C)c2nc(-c3ccccc3)c[nH]2)cc1C(N)=O [Cpd 295] | 8.66 | 71.66% | 8.40 |  | 8.21% | 8.85 | 9.74 |  |
| COc1cc(CN(C(=O)[C@@H](N)Cc2c(C)cc(C(N)=O)cc2C)[C@@H](C)c2nc(-c3ccccc3)c[nH]2)c(C(=O)O)cc1OC [Cpd 230] | 7.31 |  | 8.00 |  |  |  | 8.30 |  |
| COC(=O)c1ccc(CN(C(=O)[C@@H](N)Cc2c(C)cc(C(N)=O)cc2C)[C@@H](C)c2nc(-c3ccccc3)c[nH]2)cc1 [Cpd 51] | 7.57 | 66.04% |  | 8.57 |  |  |  | 6.95 |
| Cc1cc(C(N)=O)cc(C)c1C[C@H](N)C(=O)N(Cc1ccc(C(=O)O)cn1)[C@@H](C)c1nc(-c2ccccc2)c[nH]1 [Cpd 253] | 8.87 | 52.00% |  |  | 28.00% | 6.60 |  |  |
| Cc1cc(O)cc(C)c1C[C@H](N)C(=O)N(Cc1ccc(OC(C)C)cc1)[C@@H](C)c1nc(-c2ccccc2)c[nH]1 [Cpd 250] | 8.00 | 34.93% | 9.68 |  |  |  | 10.22 |  |
| COC(=O)c1ccc(CN(C(=O)[C@@H](N)Cc2c(C)cc(O)cc2C)[C@@H](C)c2nc(-c3ccccc3)c[nH]2)o1 [Cpd 286] | 8.59 | 34.65% | 9.96 |  |  |  | 10.30 |  |
| COc1ccc(CN(C(=O)[C@@H](N)Cc2c(C)cc(C(N)=O)cc2C)[C@@H](C)c2nc(-c3ccccc3)c[nH]2)cc1C(=O)N1CCOCC1 [Cpd 296] | 8.10 | 69.41% | 8.66 |  | 9.35% | 8.66 | 9.31 |  |
| C[C@@H](c1nc(-c2ccccc2)c[nH]1)N(Cc1cccc(-c2nnn[nH]2)c1)C(=O)[C@@H](N)Cc1ccc(C(N)=O)cc1 [Cpd 267] | 8.22 | 31.76% | 9.34 | 8.16 |  |  | 8.82 |  |
| COc1ccc(CN(C(=O)[C@@H](N)Cc2c(C)cc(C(N)=O)cc2C)[C@@H](C)c2nc(-c3ccccc3C(=O)O)c[nH]2)cc1OC [Cpd 29] | < 5.00 | 79.05% | 7.55 | 7.42 |  |  | 7.60 |  |
| COc1ccc(CN(C(=O)[C@@H](N)Cc2c(C)cc(C(N)=O)cc2C)[C@@H](C)c2nc(-c3ccccc3)c[nH]2)cc1C(=O)NCCO [Cpd 299] | 8.64 |  | 8.94 |  | 12.11% | 9.00 | 9.36 |  |
| COc1ccc(CN(C(=O)[C@@H](N)Cc2c(C)cc(C(N)=O)cc2C)[C@@H](C)c2nc(-c3ccc(Cl)cc3)c(C)[nH]2)cc1C(=O)O [Cpd 239] | < 5.00 |  | 10.00 |  |  |  | 9.36 |  |
